From patent publication US11117885B2, “Compounds having estrogen receptor alpha degradation activity and uses thereof” (ACCUTAR BIOTECHNOLOGY INC., priority 2018, dated 2021) come the findings set out here.

Usually DC50 stands for the midpoint of the concentration-degradation curve. A high value points to degradation only at high concentration.

Structures are written as SMILES. Bounds are passed on as bounds.

The assay concerns the target T1, ERα (Homo sapiens, UniProt P03372).
T1 sequence (P03372 1-595): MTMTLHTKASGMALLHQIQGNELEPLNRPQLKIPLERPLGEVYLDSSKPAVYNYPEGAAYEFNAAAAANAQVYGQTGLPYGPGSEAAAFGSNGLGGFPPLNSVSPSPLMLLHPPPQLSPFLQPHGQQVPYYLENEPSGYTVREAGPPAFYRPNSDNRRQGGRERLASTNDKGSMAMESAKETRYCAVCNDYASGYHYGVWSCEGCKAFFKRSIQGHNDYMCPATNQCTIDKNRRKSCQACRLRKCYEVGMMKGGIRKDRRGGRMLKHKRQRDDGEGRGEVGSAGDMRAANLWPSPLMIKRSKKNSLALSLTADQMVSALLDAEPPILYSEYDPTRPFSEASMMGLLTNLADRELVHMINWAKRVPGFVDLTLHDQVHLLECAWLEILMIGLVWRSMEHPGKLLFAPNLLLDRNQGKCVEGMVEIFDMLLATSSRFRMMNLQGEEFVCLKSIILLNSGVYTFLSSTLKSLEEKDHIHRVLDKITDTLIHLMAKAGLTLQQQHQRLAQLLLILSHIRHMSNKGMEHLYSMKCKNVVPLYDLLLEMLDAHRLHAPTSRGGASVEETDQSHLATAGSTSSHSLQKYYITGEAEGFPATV
Description: ERα degradative activity in T47D cells (western blot, densitometry). It is filed as cell-based. Also noted: endogenous in cells; host or cells: T47D. The conditions noted are these: T47D cell line; concentration at which 50% of the target protein (ERα) is degraded. As to the method:
T47D cells were plated in 24-well plates at 1.5×10^5 cells/well in the RPMI growth medium containing 10% FBS and 1× Penicillin Streptomycin, and then incubated at 37° C. overnight. The following day, the test compound was administered to the cells by using 1000× compound stock solution prepared in DMSO at various concentrations. After administration of the compound, the cells were then incubated at 37 C for various period of treatment time, e.g., as indicated in the figures.
Upon completion, the cells were washed with PBS and protein was collected in Laemmli sample buffer (1×; VWR International). Protein was isolated from cell lysate (approximately 25 μg) by SDS-PAGE and transferred to nitrocellulose membranes. Non-specific binding was blocked by incubation with blocking buffer (5% milk in Tris-buffered saline with 0.1% Tween 20 (“TBS-T”)) at rt for 60 minutes.
The membrane was then incubated with primary antibodies (mouse anti-ERα (1:500, Santa Cruz), mouse anti-GAPDH (1:5,000, Santa Cruz), or mouse anti-actin (1:4,000, Santa Cruz)) overnight at 4° C., followed by washing (3 times) with TBS-T, and then incubation with horseradish peroxidase-conjugated rabbit anti-mouse IgG (1:5,000) for 60 minutes. After the TBS-T washes, blots were developed with an enhanced chemiluminescence kit (ThermoFisher Scientific) and the bands were imaged and quantified by densitometry (Bio-Rad).
The DC50 values (i.e., the concentration of test compound at which 50% of the target protein is degraded) was calculated for various compounds of the present disclosure and are shown in the Table 3, below. A corresponds to a DC50 value less than or equal to 1.5 μM; B corresponds to a DC50 value greater than 1.5 μM and less than 3 μM; and C corresponds to a DC50 value greater than 3 μM.
On the technique in general: A western blot detects proteins with antibodies after separation by electrophoresis.
Turning to `CC/C(=C(\c1ccccc1)c1ccc(OCCN(C)C(=O)CCCNc2cccc3c2C(=O)N(C2CCC(=O)NC2=O)C3=O)cc1)c1ccccc1` (stereo not shown) [Compound 108, (Z)-4-((2-(2,6-dioxopiperidin-3-yl)-1,3-dioxoisoindolin-4-yl)amino)-N-(2-(4-(1,2-diphenylbut-1-en-1-yl)phenoxy)ethyl)-N-methylbutanamide], the DC50 was no more than 1500 nM.

Regarding `CC/C(=C(\c1ccccc1)c1ccc(OCCN(C)C(=O)CCNc2cccc3c2C(=O)N(C2CCC(=O)NC2=O)C3=O)cc1)c1ccccc1` (stereo not shown) [Compound 89, (Z)-3-((2-(2,6-dioxopiperidin-3-yl)-1,3-dioxoisoindolin-4-yl)amino)-N-(2-(4-(1,2-diphenylbut-1-en-1-yl)phenoxy)ethyl)-N-methylpropanamide], the DC50 is no more than 1500 nM.

`CC/C(=C(\c1ccccc1)c1ccc(OCCN(C)C(=O)CCOCCOCCOCCOCCOCCNc2cccc3c2C(=O)N(C2CCC(=O)NC2=O)C3=O)cc1)c1ccccc1` (stereo not shown) [Compound 64, (Z)-1-((2-(2,6-dioxopiperidin-3-yl)-1,3-dioxoisoindolin-4-yl)amino)-N-(2-(4-(1,2-diphenylbut-1-en-1-yl)phenoxy)ethyl)-N-methyl-3,6,9,12,15-pentaoxaoctadecan-18-amide] registered a DC50 of no more than 1500 nM.

In turn, `CC/C(=C(\c1ccccc1)c1ccc(OCCN(C)C(=O)CCOCCOCCOCCOCCNc2cccc3c2C(=O)N(C2CCC(=O)NC2=O)C3=O)cc1)c1ccccc1` (stereo not shown) [Compound 54, (Z)-1-((2-(2,6-dioxopiperidin-3-yl)-1,3-dioxoisoindolin-4-yl)amino)-N-(2-(4-(1,2-diphenylbut-1-en-1-yl)phenoxy)ethyl)-N-methyl-3,6,9,12-tetraoxapentadecan-15-amide] gave a DC50 of no more than 1500 nM.

Compound `CC/C(=C(\c1ccccc1)c1ccc(OCCN(C)C(=O)CCCCCCNc2cccc3c2C(=O)N(C2CCC(=O)NC2=O)C3=O)cc1)c1ccccc1` (stereo not shown) [Compound 126, (Z)-7-((2-(2,6-dioxopiperidin-3-yl)-1,3-dioxoisoindolin-4-yl)amino)-N-(2-(4-(1,2-diphenylbut-1-en-1-yl)phenoxy)ethyl)-N-methylheptanamide] showed a DC50 of 1500 to 3000 nM.

`CC/C(=C(\c1ccccc1)c1ccc(OCCN(C)C(=O)CCCCCNc2cccc3c2C(=O)N(C2CCC(=O)NC2=O)C3=O)cc1)c1ccccc1` (stereo not shown) [Compound 120, (Z)-6-((2-(2,6-dioxopiperidin-3-yl)-1,3-dioxoisoindolin-4-yl)amino)-N-(2-(4-(1,2-diphenylbut-1-en-1-yl)phenoxy)ethyl)-N-methylhexanamide] showed a DC50 of no more than 1500 nM.

Turning to `CC/C(=C(\c1ccccc1)c1ccc(OCCN(C)C(=O)CCCCCCCNc2cccc3c2C(=O)N(C2CCC(=O)NC2=O)C3=O)cc1)c1ccccc1` (stereo not shown) [Compound 143, (Z)-8-((2-(2,6-dioxopiperidin-3-yl)-1,3-dioxoisoindolin-4-yl)amino)-N-(2-(4-(1,2-diphenylbut-1-en-1-yl)phenoxy)ethyl)-N-methyloctanamide], the DC50 was in the range of 1500 to 3000 nM.

`CC/C(=C(\c1ccccc1)c1ccc(OCCN(C)C(=O)CNc2cccc3c2C(=O)N(C2CCC(=O)NC2=O)C3=O)cc1)c1ccccc1` (stereo not shown) [Compound 88, (Z)-2-((2-(2,6-dioxopiperidin-3-yl)-1,3-dioxoisoindolin-4-yl)amino)-N-(2-(4-(1,2-diphenylbut-1-en-1-yl)phenoxy)ethyl)-N-methylacetamide]: the DC50 is greater than 3000 nM.

Regarding `CC/C(=C(\c1ccccc1)c1ccc(OCCN(C)C(=O)CCOCCOCCNc2cccc3c2C(=O)N(C2CCC(=O)NC2=O)C3=O)cc1)c1ccccc1` (stereo not shown) [Compound 15, (Z)-3-(2-(2-((2-(2,6-Dioxopiperidin-3-yl)-1,3-dioxoisoindolin-4-yl)amino)ethoxy)ethoxy)-N-(2-(4-(1,2-diphenylbut-1-en-1-yl)phenoxy)ethyl)-N-methylpropanamide], the DC50 was greater than 3000 nM.

The compound `CC/C(=C(\c1ccccc1)c1ccc(OCCN(C)C(=O)CCOCCNc2cccc3c2C(=O)N(C2CCC(=O)NC2=O)C3=O)cc1)c1ccccc1` (stereo not shown) [Compound 8, (Z)-3-(2-((2-(2,6-dioxopiperidin-3-yl)-1,3-dioxoisoindolin-4-yl)amino)ethoxy)-N-(2-(4-(1,2-diphenylbut-1-en-1-yl)phenoxy)ethyl)-N-methylpropanamide] showed a DC50 greater than 3000 nM.
